The target of one assay is T1, AGT-Ma (Homo sapiens, UniProt P21549, D183N).
T1 sequence (P21549 1-392 D183N): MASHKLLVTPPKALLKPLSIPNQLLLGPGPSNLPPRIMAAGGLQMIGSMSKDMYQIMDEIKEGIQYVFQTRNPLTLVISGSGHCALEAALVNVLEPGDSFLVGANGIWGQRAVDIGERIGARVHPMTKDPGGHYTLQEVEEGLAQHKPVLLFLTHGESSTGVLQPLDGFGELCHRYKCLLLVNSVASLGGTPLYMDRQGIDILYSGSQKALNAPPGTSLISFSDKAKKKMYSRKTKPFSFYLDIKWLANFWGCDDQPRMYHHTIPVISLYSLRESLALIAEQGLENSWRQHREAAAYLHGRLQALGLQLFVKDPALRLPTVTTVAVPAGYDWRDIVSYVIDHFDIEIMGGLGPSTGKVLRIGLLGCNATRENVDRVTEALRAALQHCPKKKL
In words: CD signal at […] nm titration of apoenzyme. The format is binding.

In a further assay the target is T2, AGT-Mi (Homo sapiens, UniProt P21549, G161C/I340M/P11L).
T2 sequence (P21549 1-392 P11L/G161C/I340M): T1 sequence (P21549 1-392 D183N) with P11L, G161C, N183D, I340M
In words: quenching of intrinsic fluorescence of apoenzyme. It is filed as binding.

The values below come from publication PMC3271384 (Molecular Genetics and Metabolism, 2012).

The Kd is the concentration at which binding is half-saturated. A lower Kd goes with higher affinity.

Residue numbers refer to the chain shown, from its start.

For `Cc1ncc(COP(=O)(O)O)c(C=O)c1O` [PLP], the figures for the Kd on AGT-Ma and at AGT-Mi were 2100 ± 100 nM and 560 ± 90 nM, respectively.
